Assay results taken from patent US20240263133A1, “PROCESS FOR THE ISOLATION AND CULTURE OF STRAINS, THE STRAINS, USE THEREOF, MEDIA FOR CULTURING THEREOF AND A FORM OF SCYTONEMIN” (UVERA SA, priority 2021, published 2024).

Experiments:
[1] = Degree of scytonemin dispersion in selected solutions used in cosmetics; type: physicochemical; conditions: for dispersion level: shaker 1 min, ultrasonic bath 10 min
Method: 0.5 mg scytonemin was weighed out on an analytical balance and suspended in 1 g of the solution: • 1) Propylene glycol (INCI: Propylene Glycol) • 2) Refined apricot oil (INCI: Prunus Armeniaca (Apricot) Kernel Oil) • 3) Glycerin (INCI: Glycerin) • 4) Isohexadecane (INCI: Isohexadecane) • 5) 2-octyldodecan-1-ol ODD (INCI: Octyldodecanol) • 6) SLP Emulsifier (INCI: Sorbitan Laurate/Polyglyceryl-4 Laurate/Dilauryl Citrate)
Subsequently, the sample was mixed using a shaker for approx. 1 min and maintained for 10 min in an ultrasonic bath to achieve a higher dispersion level.
0.5 mg of scytonemin was weighed out on an analytical balance and suspended in 5 g of the composition: • 7) glycerin+glycerol stearate+water+silica+alcohol
The sample was stirred for 5 min using a laboratory stirrer

[2] = Thermogravimetric/differential thermal analysis (TG/DTA), thermal decomposition; type: physicochemical; conditions: argon, heating 15 ° C./minute, 3.7 mg
Method: 3.7 mg of the sample was weighed out into an alumina crucible and 34.6 mg of pure gold wire (99.999%) was added to balance the rod weight with the microbalance counterweight.
• Argon flow at 2 atm • Sample weight: 3.7 mg • Crucible: 100 μL Al2O3 • Reference crucible: Al2O3 • Temperature ramp:
Weight losses in successive stages were calculated based on the thermogravimetric curve, and the presence of exothermic and endothermic processes during sample heating were determined from the heat flow curve.

[3] = Storage stability in room conditions, absorbance spectra before and after; type: physicochemical; conditions: 25° C., 10 months
Method: The compound prepared in Example 1 was stored in room conditions (temp. 25° C.) for 10 months. Absorbance spectra before and after the storage test are identical, which confirms stability of the compound. […] The crystalline form of scytonemin of the invention is stable.

[4] = cited from earlier work
[5] = UV absorption, specific extinction in DMSO by spectrophotometer; type: physicochemical; conditions: 1% by weight, 1 cm cuvette
Method: A scytonemin sample obtained according to Example 1 was dissolved in DMSO (dimethylsulfoxide) to a concentration of 1% by weight and subsequently, with a spectrophotometer used according to the standard procedures (manufacturer: Varian, model: CARY 100 Scan) absorbance was measured for two wavelengths (305 and 393 nm) in a cuvette with 1 cm thickness.

scytonemin
dispersion level ([1]; 0.5 mg in 1 g 2-octyldodecan-1-ol ODD (solution 5)): Relatively high dispersion level | dispersion level ([1]; 0.5 mg in 1 g SLP Emulsifier (solution 6)): Low dispersion level | dispersion level ([1]; 0.5 mg in 1 g glycerin (solution 3)): Low dispersion level | dispersion level ([1]; 0.5 mg in 1 g isohexadecane (solution 4)): High dispersion level | dispersion level ([1]; 0.5 mg in 1 g propylene glycol (solution 1)): High dispersion level | dispersion level ([1]; 0.5 mg in 1 g refined apricot oil (solution 2)): Very low dispersion level | dispersion / dissolution in raw material base ([1]; 0.5 mg in 5 g glycerin+glycerol stearate+water+silica+alcohol (composition 7), stirred 5 min): did not dissolve but disintegrated into smaller particles | Maximum of weight loss (decomposition maximum) [2]: 380.3 °C | T range of decomposition [2]: 365.4-380.3 °C | absorbance spectra before and after the storage test [3]: identical | characteristic absorbance spectra after continuous UVA irradiation ([4]; 2 months, UVA 5 W/m2): practically unchanged | characteristic absorbance spectra after heating ([4]; heating to 60° C. for 2 months): practically unchanged | Specific extinction/1% at 305 nm ([5]; 305 nm): 330 | Specific extinction/1% to 393 nm ([5]; 393 nm): 730
